Source: PubChem BioAssay (NCI)
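Dose response: 5 concentrations. Exposure: 48 h. Format: 96-well plates. Endpoint: linear interpolation; highest concentration if not reached. TGI marks complete inhibition of growth.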

Tests used:
Assay in all cases: DTP human tumour cell line panel, 48 h
HL-60(TB) leukemia = system: HL-60(TB) leukemia
HCT-15 colon = system: HCT-15 colon
SF-539 CNS = system: SF-539 CNS
SK-OV-3 ovarian = system: SK-OV-3 ovarian
SW-620 colon = system: SW-620 colon
SN12C renal = system: SN12C renal
TK-10 renal = system: TK-10 renal
MOLT-4 leukemia = system: MOLT-4 leukemia
KM20L2 colon = system: KM20L2 colon
UACC-62 melanoma = system: UACC-62 melanoma
A549 NSCLC = system: A549 NSCLC
UACC-257 melanoma = system: UACC-257 melanoma
SR leukemia = system: SR leukemia
DLD-1 colon = system: DLD-1 colon
CCRF-CEM leukemia = system: CCRF-CEM leukemia
EKVX NSCLC = system: EKVX NSCLC
SF-268 CNS = system: SF-268 CNS
K-562 leukemia = system: K-562 leukemia
SK-MEL-5 melanoma = system: SK-MEL-5 melanoma
U251 CNS = system: U251 CNS
HOP-92 NSCLC = system: HOP-92 NSCLC
MALME-3M melanoma = system: MALME-3M melanoma
NCI-H522 lung = system: NCI-H522 lung
XF 498 CNS = system: XF 498 CNS
SK-MEL-2 melanoma = system: SK-MEL-2 melanoma
NCI-H226 lung = system: NCI-H226 lung
HT29 colon = system: HT29 colon
SNB-75 CNS = system: SNB-75 CNS
ACHN renal = system: ACHN renal
CAKI-1 renal = system: CAKI-1 renal
KM12 colon = system: KM12 colon
SF-295 CNS = system: SF-295 CNS
SNB-78 CNS = system: SNB-78 CNS
NCI-H23 lung = system: NCI-H23 lung
LOX IMVI melanoma = system: LOX IMVI melanoma
M14 melanoma = system: M14 melanoma
M19-MEL melanoma = system: M19-MEL melanoma
HCT-116 colon = system: HCT-116 colon
IGROV1 ovarian = system: IGROV1 ovarian
RXF-631 renal = system: RXF-631 renal
UO-31 renal = system: UO-31 renal
OVCAR-3 ovarian = system: OVCAR-3 ovarian
RPMI-8226 leukemia = system: RPMI-8226 leukemia
LXFL 529 NSCLC = system: LXFL 529 NSCLC
786-0 renal = system: 786-0 renal
DMS 273 small cell lung = system: DMS 273 small cell lung
SK-MEL-28 melanoma = system: SK-MEL-28 melanoma
COLO 205 colon = system: COLO 205 colon
HCC-2998 colon = system: HCC-2998 colon
SNB-19 CNS = system: SNB-19 CNS
DMS 114 small cell lung = system: DMS 114 small cell lung
HOP-62 NSCLC = system: HOP-62 NSCLC
NCI-H460 lung = system: NCI-H460 lung
HOP-18 NSCLC = system: HOP-18 NSCLC
RXF 393 renal = system: RXF 393 renal
A498 renal = system: A498 renal
OVCAR-4 ovarian = system: OVCAR-4 ovarian
OVCAR-8 ovarian = system: OVCAR-8 ovarian

COC(=O)C(=O)C(C#N)c1ccc(Cl)c(Cl)c1 (configuration not stated)
TGI (HL-60(TB) leukemia): > 100 µM | TGI (HCT-15 colon): > 100 µM | TGI (SF-539 CNS): > 100 µM | TGI (SK-OV-3 ovarian): > 100 µM | TGI (SW-620 colon): > 100 µM | TGI (SN12C renal): > 100 µM | TGI (TK-10 renal): > 100 µM | TGI (MOLT-4 leukemia): > 100 µM | TGI (KM20L2 colon): > 100 µM | TGI (UACC-62 melanoma): > 100 µM | TGI (A549 NSCLC): > 100 µM | TGI (UACC-257 melanoma): > 100 µM | TGI (SR leukemia): > 100 µM | TGI (DLD-1 colon): > 100 µM | TGI (CCRF-CEM leukemia): > 100 µM | TGI (EKVX NSCLC): > 100 µM | TGI (SF-268 CNS): > 100 µM | TGI (K-562 leukemia): > 100 µM | TGI (SK-MEL-5 melanoma): > 100 µM | TGI (U251 CNS): > 100 µM | TGI (HOP-92 NSCLC): > 100 µM | TGI (MALME-3M melanoma): > 100 µM | TGI (NCI-H522 lung): > 100 µM | TGI (XF 498 CNS): > 100 µM | TGI (SK-MEL-2 melanoma): > 100 µM | TGI (NCI-H226 lung): > 100 µM | TGI (HT29 colon): > 100 µM | TGI (SNB-75 CNS): > 100 µM | TGI (ACHN renal): > 100 µM | TGI (CAKI-1 renal): > 100 µM | TGI (KM12 colon): > 100 µM | TGI (SF-295 CNS): > 100 µM | TGI (SNB-78 CNS): > 100 µM | TGI (NCI-H23 lung): > 100 µM | TGI (LOX IMVI melanoma): > 100 µM | TGI (M14 melanoma): > 100 µM | TGI (M19-MEL melanoma): > 100 µM | TGI (HCT-116 colon): > 100 µM | TGI (IGROV1 ovarian): > 100 µM | TGI (RXF-631 renal): > 100 µM | TGI (UO-31 renal): > 100 µM | TGI (OVCAR-3 ovarian): > 100 µM | TGI (RPMI-8226 leukemia): > 100 µM | TGI (LXFL 529 NSCLC): > 100 µM | TGI (786-0 renal): > 100 µM | TGI (DMS 273 small cell lung): > 100 µM | TGI (SK-MEL-28 melanoma): > 100 µM

Cc1ccc([Se][Se]c2ccc(C)cc2)cc1
TGI (HL-60(TB) leukemia): 19.2 µM | TGI (HCT-15 colon): > 100 µM | TGI (SF-539 CNS): > 100 µM | TGI (SK-OV-3 ovarian): > 100 µM | TGI (SW-620 colon): 51.6 µM | TGI (COLO 205 colon): > 100 µM | TGI (HCC-2998 colon): > 100 µM | TGI (SN12C renal): > 100 µM | TGI (TK-10 renal): > 100 µM | TGI (MOLT-4 leukemia): > 100 µM | TGI (SNB-19 CNS): > 100 µM | TGI (KM20L2 colon): > 100 µM | TGI (DMS 114 small cell lung): 57 µM | TGI (UACC-62 melanoma): 31.7 µM | TGI (A549 NSCLC): > 100 µM | TGI (UACC-257 melanoma): 68.8 µM | TGI (HOP-62 NSCLC): > 100 µM | TGI (DLD-1 colon): > 100 µM | TGI (CCRF-CEM leukemia): 19.7 µM | TGI (SF-268 CNS): 88.1 µM | TGI (K-562 leukemia): 28 µM | TGI (NCI-H460 lung): > 100 µM | TGI (HOP-18 NSCLC): 33.5 µM | TGI (SK-MEL-5 melanoma): 39.6 µM | TGI (U251 CNS): 17.5 µM | TGI (RXF 393 renal): > 100 µM | TGI (A498 renal): > 100 µM | TGI (HOP-92 NSCLC): 22.3 µM | TGI (MALME-3M melanoma): > 100 µM | TGI (NCI-H522 lung): 16.3 µM | TGI (XF 498 CNS): 40.8 µM | TGI (SK-MEL-2 melanoma): > 100 µM | TGI (NCI-H226 lung): > 100 µM | TGI (HT29 colon): > 100 µM | TGI (SNB-75 CNS): 42.2 µM | TGI (ACHN renal): > 100 µM | TGI (CAKI-1 renal): > 100 µM | TGI (KM12 colon): > 100 µM | TGI (SF-295 CNS): 61.6 µM | TGI (SNB-78 CNS): 87.6 µM | TGI (NCI-H23 lung): > 100 µM | TGI (LOX IMVI melanoma): 18.9 µM | TGI (OVCAR-4 ovarian): 36.9 µM | TGI (M19-MEL melanoma): 40.6 µM | TGI (HCT-116 colon): > 100 µM | TGI (IGROV1 ovarian): > 100 µM | TGI (RXF-631 renal): 77.9 µM | TGI (UO-31 renal): 49.7 µM | TGI (OVCAR-8 ovarian): > 100 µM | TGI (OVCAR-3 ovarian): > 100 µM | TGI (RPMI-8226 leukemia): 31.8 µM | TGI (LXFL 529 NSCLC): 31.7 µM | TGI (786-0 renal): 46.5 µM | TGI (DMS 273 small cell lung): 32.4 µM | TGI (SK-MEL-28 melanoma): 81.3 µM
